Like-named read-outs stand apart in the source and are kept apart here. Marks after values point to notes of the source that are not given here.
Legend:
[1] = not measured, data according to Neues Rezeptur-Formularium, cited from earlier work
[2] = Abafungin solubility in excipients (Example 1); type: physicochemical
Description: To order to study the solubility of abafungin, abafungin was dissolved in a number of excipients.

[3] = Fungicidal concentrations of abafungin (stated in Example 4); type: cell-based

In the case of Cc1cc(C2CCCCC2)n(O)c(=O)c1 [Ciclopirox Olamine], the maximum solubility ([1]; Ethanol gel (NRF 11.84)) is listed as “~soluble*^5”, the maximum solubility ([1]; Pure ethanol) is listed as “~soluble*^5” and the maximum solubility ([1]; Pure water) is listed as ~1-3%*^5.
For Cc1ccc(Oc2ccccc2-c2csc(N=C3NCCCN3)n2)c(C)c1 [abafungin], the Not soluble ([2]; excipient: MPEG 550) was “✓”, the Not soluble ([2]; excipient: MPEG 2000) was “✓” and the Not soluble ([2]; excipient: PEG 400) was “✓”. For the same molecule, the Not soluble ([2]; excipient: PEG 1500) was “✓”, the Not soluble ([2]; excipient: PEG 4500) was “✓” and the Not soluble ([2]; excipient: PEG 6000) was “✓”. The Not soluble ([2]; excipient: PEG 12000) was “✓”, the Not soluble ([2]; excipient: PEG 20000) was “✓” and the Not soluble ([2]; excipient: cetearyl ethylhexanoate (cosmetic oils)) was “✓”. The Not soluble ([2]; excipient: decyl oleate (cosmetic oils)) was “✓”, the Not soluble ([2]; excipient: ethanol) was “✓” and the Not soluble ([2]; excipient: ethanol 70%) was “✓”. For the same molecule, the Not soluble ([2]; excipient: glycerine) was “✓”, the Not soluble ([2]; excipient: isopropanol) was “✓” and the Not soluble ([2]; excipient: isopropyl myristate (cosmetic oils)) was “✓”. The Not soluble ([2]; excipient: isopropyl palmitate (cosmetic oils)) was “✓”, the Not soluble ([2]; excipient: medium chain triglyceride (cosmetic oils)) was “✓” and the Not soluble ([2]; excipient: propylene glycol) was “✓”. The Soluble ([2]; excipient: transcutol) was “✓ (3%)”, the Not soluble ([2]; excipient: water) was “✓” and the “solubility” value ([2]; mixture of water, polyethylene glycol, polyethylene glycol monomethyl ether and an acid such as formic acid) was “soluble”. The fungicidal concentrations [3] was 16 to 30 µg/mL.
